Laboratory results taken from patent publication US20240238231A1, “EDTA AND EGTA FOR USE IN PRESERVING THE INTEGRITY OF THERAPEUTIC COMPOUNDS” (Axcess (UK) Ltd, priority 2021, published 2024).

Key:
[1] = molecular target: T1, Trypsin from porcine pancreas (Sus scrofa, UniProt P00761); assay: Inhibition of trypsin activity, fluorescence microplate assay with Z-L-arginine-4-methyl-7-coumarinylamide substrate; assay type: biochemical; settings: for effect on the activity of trypsin: pH 7, 30 minutes
T1 construct: from tissue; host or cells: porcine pancreas
T1 sequence (P00761 9-231): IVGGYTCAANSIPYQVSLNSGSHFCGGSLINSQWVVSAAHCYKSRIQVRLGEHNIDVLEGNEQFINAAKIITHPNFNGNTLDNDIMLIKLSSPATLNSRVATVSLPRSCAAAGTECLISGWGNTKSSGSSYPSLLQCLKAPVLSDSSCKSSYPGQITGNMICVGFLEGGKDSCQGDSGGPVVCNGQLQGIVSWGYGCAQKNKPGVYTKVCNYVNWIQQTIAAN
Protocol: A dilute solution of phosphate-buffered saline (PBS) was prepared at a concentration of 0.3 mM phosphate (pH7), and used to dissolve calcium chloride dihydrate or magnesium chloride at a concentration of 0.3 mg/ml. Trypsin from porcine pancreas was dissolved in the Ca/PBS buffer, in either the presence or absence of calcium, at a concentration of trypsin at 0.02 mg/ml. 5 ml aliquots of disodium EDTA (dihydrate) solution were prepared in PBS with and without calcium or magnesium at doubling dilutions from 8 mg/ml downwards, and the pH of each solution adjusted to 7. Trypsin substrate (namely Z-L-arginine-4-methyl-7-coumarinylamide HCl) was dissolved in DMSO at a concentration of 0.125 mg/ml, then diluted 100-fold in Ca/PBS buffer. EDTA solutions were dispensed into the wells of a black microplate (60 ul per well) then 10 ul of trypsin solution was added, followed by 10 ul of substrate. The reaction was allowed to proceed for 30 minutes, and the extent of reaction determined in a fluorescence microplate reader by measuring the fluorescence of the reaction product (coumarin) at excitation wavelength 365 nm, emission 440 nm.
A dilute solution of phosphate-buffered saline (PBS) was prepared at a concentration of 0.3 mM phosphate (pH7), and used to dissolve calcium chloride dihydrate at a concentration of 0.3 mg/ml. Trypsin from porcine pancreas was dissolved in the Ca/PBS buffer at a concentration of 0.02 mg/ml trypsin. 5 ml aliquots of disodium EGTA (dihydrate) solution were prepared in PBS at doubling dilutions from 8 mg/ml downwards, and the pH of each solution adjusted to 7. Trypsin substrate (namely Z-L-arginine-4-methyl-7-coumarinylamide HCl) was dissolved in DMSO at a concentration of 0.125 mg/ml, then diluted 100-fold in Ca/PBS buffer. EGTA solutions were dispensed into the wells of a black microplate (60 ul per well) then 10 ul of trypsin solution was added, followed by 10 ul of substrate. The reaction was allowed to proceed for 30 minutes, and the extent of reaction determined in a fluorescence microplate reader by measuring the fluorescence of the reaction product (coumarin) at excitation wavelength 365 nm, emission 440 nm.
A dilute solution of phosphate-buffered saline (PBS) was prepared at a concentration of 0.3 mM phosphate (pH7), and used to dissolve calcium chloride dihydrate at a concentration of 0.3 mg/ml. Trypsin from porcine pancreas was dissolved in the buffer, in either the presence or absence of calcium, at a concentration of 0.02 mg/ml. 5 ml aliquots of disodium EGTA (dihydrate) solution and phenanthroline (Low concentrations of phenanthroline only were employed, because of its limited solubility in aqueous phase) were prepared in PBS with and without calcium at doubling dilutions from 8 mg/ml downwards, and the pH of each solution adjusted to 7. Trypsin substrate (namely Z-L-arginine-4-methyl-7-coumarinylamide HCl) was dissolved in DMSO at a concentration of 0.125 mg/ml, then diluted 100-fold in Ca/PBS buffer. EGTA solutions and phenanthroline were dispensed into the wells of a black microplate (60 ul per well) then 10 ul of trypsin solution was added, followed by 10 ul of substrate. The reaction was allowed to proceed for 30 minutes, and the extent of reaction determined in a fluorescence microplate reader by measuring the fluorescence of the reaction product (coumarin) at excitation wavelength 365 nm, emission 440 nm.

chymotrypsin = settings: in the presence of calcium ions only, FIG. 4
Protocol: Experiment 1 was repeated, except that chymotrypsin was employed, instead of trypsin, and the experiment was conducted in the presence of calcium ions only.

[2] = in combination with / in the presence of calcium (0.3 mg/ml), FIG. 1 and FIG. 3

`O=C(O)CN(CCN(CC(=O)O)CC(=O)O)CC(=O)O` [EDTA] was tested, and the “effect on the activity of trypsin” value ([1]; EDTA alone (no calcium or magnesium), doubling dilutions from 8 mg/ml, FIG. 1) was “significant inhibitory effect”, the “effect on the activity of trypsin” value [1, 2] was “significant inhibitory effect” and the “effect on the activity of trypsin” value ([1]; in combination with magnesium (0.5 mg/ml), FIG. 1) was “significant inhibitory effect”. The “effect on the protease activity of chymotrypsin” value (chymotrypsin) was “inhibitory effect”.

With `O=C(O)CN(CCOCCOCCN(CC(=O)O)CC(=O)O)CC(=O)O` [EGTA] the “effect on the activity of trypsin” value ([1]; EGTA doubling dilutions from 8 mg/ml, presence and absence of calcium ions, FIG. 2) was “inhibitory effect”.

For `O=C(O)CC(O)(CC(=O)O)C(=O)O` [citrate, citric acid, reference compound], the “effect on the activity of trypsin” value [1, 2] was “no effect”.

With `c1cnc2c(c1)ccc1cccnc12` [phenanthroline, ortho-phenanthroline, reference compound] the “effect on the activity of trypsin” value [1, 2] was “no inhibitory effect”.

For `[Zn+2]` [zinc], the “effect of the metal ion on inhibition of trypsin by EDTA or EGTA” value ([1]; metal ion combined with EDTA or EGTA, calcium and magnesium show inhibition) was “has no such effect”.
